# Earlier results, collected in PMC4617652 (Journal of the American Chemical Society, 2015).
# Where two headings read alike, the source gives them in different places.
structure (smiles),measurement,setting,value
CCN=P(N=P(N(C)C)(N(C)C)N(C)C)(N(C)C)N(C)C [P2-Et],pKBH+ of reference base,MeCN ref 6c,32.94
C1CCC2=NCCCN2CC1 [DBU],pKBH+ of reference base,MeCN ref 24,24.34
CC(C)(C)N=P(N1CCCC1)(N1CCCC1)N1CCCC1 [P1-tBu(pyrr)3],pKBH+ of reference base,MeCN ref 19,28.35
